Where two headings read alike, the source gives them in different places.
Biological target: His-tagged KRAS G12D protein (Homo sapiens, UniProt P01116, G12D)
Assay: KRAS G12D TR-FRET Assay
Type: binding
Method: The His-tagged KRAS G12D protein (Amgen) was diluted to 20 nM in Assay Buffer (20 mM HEPES, pH 7.4, 10 mM MgCl2, 50 mM NaCl, 0.1% BSA, 0.01% Tween-20, 10 μM GDP) and 2 μL was added to the appropriate wells of the 384-well plate. The plate was incubated for 30 minutes at room temperature. Biotinylated KRPep-2d substrate (Amgen) was diluted to 20 nM in Assay Buffer and 2 μL was added to all wells and incubated for 1 hour at room temperature. Detection Reagent (0.4 nM LANCE Eu-W1024 Anti-6×His (Perkin Elmer AD0401), 5 nM streptavidin-d2 (Cisbio 610SADLA)) was prepared in Assay Buffer, then 4 μL was added to the plate and incubated for 1 hour at room temperature.

Chain of His-tagged KRAS G12D protein (P01116 1-188 isoform P01116-2 G12D): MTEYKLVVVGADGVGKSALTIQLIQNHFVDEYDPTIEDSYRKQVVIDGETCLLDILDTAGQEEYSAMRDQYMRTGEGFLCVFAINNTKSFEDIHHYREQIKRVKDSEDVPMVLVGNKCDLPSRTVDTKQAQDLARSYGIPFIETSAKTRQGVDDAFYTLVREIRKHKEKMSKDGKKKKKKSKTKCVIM

Row | SMILES | IC50 (TR-FRET binding) [nM] | IC50 (TR-FRET, read-out: KRAS G12D Binding IC50) [nM]
1 | Cc1cc2[nH]ncc2c2c1CCCC(F)C(=O)N[C@@H]1CCCCN(C1)c1nc(OC[C@@]34CCCN3C[C@H](F)C4)nc3c(F)c-2ncc13 (single isomer, unassigned) [Example 159] | 6 | –
2 | O=C1OC/C=C/c2c(Cl)cc3[nH]ncc3c2-c2ncc3c(nc(OC[C@@]45CCCN4C[C@H](F)C5)nc3c2F)N2CCC[C@H](C2)O1 (single isomer, unassigned) [Example 116] | 17 | –
3 | C[C@H]1CCOC[C@H]2CN(CCO2)c2nc(OC[C@@]34CCCN3C[C@H](F)C4)nc3c(F)c(ncc23)-c2c(c(Cl)cc3[nH]ncc23)C1 (single isomer, unassigned) [Example 252] | 28 | –
4 | Fc1c2ncc3c(nc(OC[C@@]45CCCN4C[C@H](F)C5)nc13)N1CCOC[C@@H](COCCCCc3c(Cl)cc4[nH]ncc4c3-2)C1 (single isomer, unassigned) [Example 137] | 4 | –
5 | O=C1CCCCc2c(Cl)cccc2-c2ncc3c(nc(OC[C@@]45CCCN4C[C@H](F)C5)nc3c2F)N2CC[C@H]3CCN1[C@H]3C2 (single isomer, unassigned) [Example 162] | 37 | –
6 | CN1CCC[C@H]1COc1nc2c3cnc(c(F)c3n1)-c1c(c(Cl)cc3[nH]ncc13)CCCOC(=O)O[C@@]1(C)COCCN2C1 (single isomer, unassigned) [Example 180] | 1510 | –
7 | C[C@@H](Oc1nc2c3cnc(c(F)c3n1)-c1c(c(Cl)cc3[nH]ncc13)CCCOC(=O)O[C@@H]1COCCN2C1)[C@@H]1CCCN1C (single isomer, unassigned) [Example 203] | 17 | –
8 | CN1C(=O)COCC[C@H]2CCc3cc4[nH]ncc4c(c32)-c2ncc3c(nc(OC[C@@]45CCCN4C[C@H](F)C5)nc3c2F)N2CCC[C@@H]1C2 (single isomer, unassigned) [Example 278] | 19300 | –
9 | Fc1c2ncc3c(nc(OC[C@@]45CCCN4C[C@H](F)C5)nc13)N1CCO[C@]3(C1)C[C@@H](C3)OCCCCc1c(Cl)cc3[nH]ncc3c1-2 (single isomer, unassigned) [Example 261] | 6 | –
10 | Cc1cc2[nH]ncc2c2c1CCCCO[C@@H](C)[C@H]1CN(CCO1)c1nc(OC[C@@]34CCCN3C[C@H](F)C4)nc3c(F)c-2ncc13 (single isomer, unassigned) [Example 242] | 1140 | –
11 | Fc1c2ncc3c(nc(OC[C@@]45CCCN4C[C@H](F)C5)nc13)N1CCOC[C@@H](C1)c1cnn(n1)CCCc1c(Cl)cc3[nH]ncc3c1-2 (single isomer, unassigned) [Example 297] | 8070 | –
12 | C[C@H](Oc1nc2c3cnc(c(F)c3n1)-c1c(c(Cl)cc3[nH]ncc13)CCCOC(=O)O[C@@H]1COCCN2C1)[C@@H]1CCCN1C (single isomer, unassigned) [Example 204] | 34 | –
13 | Fc1c2ncc3c(nc(OC[C@@]45CCCN4C[C@H](F)C5)nc13)N1CCOC[C@H](COCCCCc3c(Cl)cc4[nH]ncc4c3-2)C1 (single isomer, unassigned) [Example 136] | 7 | –
14 | CN1CCC[C@H]1COc1nc2c3cnc(c(F)c3n1)-c1c(c(Cl)cc3[nH]ncc13)CCCOC(=O)O[C@]1(CF)COCCN2C1 (single isomer, unassigned) [Example 338] | 7 | –
15 | Fc1c2ncc3c(nc(OC[C@@]45CCCN4C[C@H](F)C5)nc13)N1CCCC[C@@](F)(COCCCCc3c(Cl)cc4[nH]ncc4c3-2)C1 (single isomer, unassigned) [Example 399] | – | 4
16 | O=C1OC/C=C\c2c(Cl)cc3[nH]ncc3c2-c2ncc3c(nc(OC[C@@]45CCCN4C[C@H](F)C5)nc3c2F)N2CCC[C@H](C2)O1 (single isomer, unassigned) [Example 122] | 5 | –
17 | Fc1cc2[nH]ncc2c2c1CCCCOC[C@H]1CCCCN(C1)c1nc(OC[C@@]34CCCN3C[C@H](F)C4)nc3c(F)c-2ncc13 (single isomer, unassigned) [Example 240] | 3 | –
18 | C[C@@]12CCCN(C1)c1nc(OC[C@@]34CCCN3C[C@H](F)C4)nc3c(F)c(ncc13)-c1cccc3ccc(F)c(c13)CCOC(=O)N2 (single isomer, unassigned) [Example 77] | 14 | –
